{
  "source": "paper PMC8229129",
  "about": "“Local Colonic Administration of a Serine Protease Inhibitor Improves Post-Inflammatory Visceral Hypersensitivity in Rats” (Pharmaceutics, 2021)",
  "key": {"uPA": {"tested_on": "uPA", "set-up": "method as in PMID 29911328", "conditions": "in vitro; cited from earlier work"}, "plasmin": {"tested_on": "plasmin", "set-up": "method as in PMID 29911328", "conditions": "in vitro; cited from earlier work"}, "chronic colitis": {"tested_on": "chronic colitis", "set-up": "method as in doi:10.1016/S0016-5085(16)33277-2", "conditions": "murine CD4+CD25−CD62L+ T-cell transfer model for chronic colitis; cited from earlier work"}, "kallikrein 8": {"tested_on": "kallikrein 8", "set-up": "method as in PMID 29911328", "conditions": "in vitro; cited from earlier work"}, "kallikrein 4": {"tested_on": "kallikrein 4", "set-up": "method as in PMID 29911328", "conditions": "in vitro; cited from earlier work"}, "[1]": {"tested_on": "visceral hypersensitivity in post-colitis rats", "test": "Visceromotor response (VMR) to colorectal distensions, TNBS-induced post-colitis rat model for visceral hypersensitivity", "format": "in vivo, Sprague–Dawley rats", "procedure": "A well-characterized 2,4,6-trinitrobenzene sulfonic acid (TNBS)-induced post-colitis rat model for visceral hypersensitivity was used in this study. Details on the procedures are given in subsequent paragraphs. After acclimation, an enema containing TNBS was used to induce a mild colitis, whereas control rats received an enema containing saline. The presence and severity of acute colitis were scored colonoscopically 3 days later. Subsequently, a colonoscopy was performed starting from day 10 and repeated every 4 days until complete mucosal healing was observed. Then, electromyographic (EMG) electrodes were implanted in the abdominal musculature of the rat and exteriorized at the scapular region. Three days later, the serine protease inhibitor UAMC-00050 or its vehicle was given intracolonically. Thirty minutes after the single administration of the drug, visceral sensitivity to colorectal distensions and colonic compliance were evaluated. Finally, animals were sacrificed (exsanguination under pentobarbital anesthesia, 45 mg/kg i.p.) and inflammatory parameters (colonoscopy, macroscopy, microscopy, and myeloperoxidase (MPO) activity) were scored to confirm the post-inflammatory state of the animal and to evaluate effects of the compound on mucosal inflammation. Colonic and fecal samples were taken for the assessment of proteolytic activities using selective fluorogenic substrates. Pharmacokinetic experiments were performed in a separate group of rats.\nAfter an overnight fast with free access to water, rats were anesthetized with a mixture of ketamine (35 mg/kg, i.p.) and xylazine (5 mg/kg, i.p.) and placed in a Trendelenburg position. A flexible catheter (18 G, length 4.5 cm) was used to administer a 250 µL TNBS-enema (4 mg in 50% ethanol) or saline in the distal colon of randomized colitis and control rats, respectively, according to previously published protocols. Afterwards, animals were allowed to recover in their own cages with free access to water and food.\nThe serine protease inhibitor UAMC-00050 (0.1–1.0–2.5–5.0 mg/kg, dissolved in a volume of 200 µL) or its vehicle (5% DMSO in H2O) was delivered colonically using a flexible catheter (18 G, length 4.5 cm) under short-lasting isoflurane anesthesia (5.0% induction, 1.5% maintenance). To prevent expulsion of the enema, animals were held in a Trendelenburg position for 90 s. Doses for intracolonic administration were based on the doses known to be effective via an i.p. administration and adapted afterwards based on preliminary results.\nContractions of the abdominal musculature in response to isobaric colorectal distensions, a nociceptive reflex known as the visceromotor response (VMR), were used to quantify colonic mechanosensitivity in vivo [24, 28]. To this end, 2 Teflon-coated EMG electrodes (AISI 316 stainless steel, ø 0.125 mm, Advent Research Material Ltd., Oxford, UK) were sutured into the abdominal external oblique muscle, in close proximity to the right inguinal ligament and 5 mm apart. Then, the electrodes were tunneled, subcutaneously towards the base of the neck, exteriorized, and fixated with a plastic cap for future access. Rats were single-housed during their 3-day recovery after the surgical procedure to protect the electrodes and plastic cap from damage.\nOn the day of the VMR experiment, a lubricated balloon (length 5.0 cm) was introduced into the colorectum of the conscious rat and connected to a barostat, allowing phasic isobaric colonic distensions (Distender Series IIR Barostat, G&J Electronics, Toronto, ON, Canada). EMG electrodes were attached to a data acquisition system and a standardized, pressure-controlled phasic distension protocol was used to expand the balloon (20 s distensions of 10–20–30–40–60 mmHg, 4 min interval). […]"}},
  "data": [
    {"smiles": "CC(=O)Nc1ccc(OP(=O)(Oc2ccc(NC(C)=O)cc2)C(Cc2ccc(N=C(N)N)cc2)NC(=O)OCc2ccccc2)cc1.Cl", "note": "(centres unmarked) [UAMC-00050]", "values": [
      {"measurement": "inhibition of uPA", "setting": "uPA", "value": "efficiently inhibits"},
      {"measurement": "inhibition of plasmin", "setting": "plasmin", "value": "efficiently inhibits"},
      {"measurement": "Effect on inflammation", "setting": "chronic colitis", "value": "anti-inflammatory effects"},
      {"measurement": "inhibition of kallikrein 8", "setting": "kallikrein 8", "value": "efficiently inhibits"},
      {"measurement": "inhibition of kallikrein 4", "setting": "kallikrein 4", "value": "efficiently inhibits"},
      {"measurement": "Effect on visceral sensitivity (VMR)", "setting": "[1]; control rats, 5.0 mg/kg single intracolonic administration", "value": "no changes in visceral sensitivity"},
      {"measurement": "Effect on visceral sensitivity (VMR)", "setting": "[1]; post-colitis rats, 0.1 mg/kg single intracolonic administration, 30 min before", "value": "attenuated visceral sensitivity at 30 and 40 mmHg"},
      {"measurement": "Effect on visceral sensitivity (VMR)", "setting": "[1]; post-colitis rats, 1.0 mg/kg single intracolonic administration, 30 min before", "value": "decreased visceral sensitivity at 20 mmHg"},
      {"measurement": "Effect on visceral sensitivity (VMR)", "setting": "[1]; post-colitis rats, 2.5 mg/kg single intracolonic administration, 30 min before", "value": "completely restored sensitivity to normal values"},
      {"measurement": "Effect on visceral sensitivity (VMR)", "setting": "[1]; post-colitis rats, 5.0 mg/kg single intracolonic administration, 30 min before", "value": "VMRs that were even lower than those in control rats"},
      {"measurement": "Dose required to obtain complete reversal of visceral hypersensitivity", "setting": "[1]; post-colitis rats, intracolonic", "value": 2.5, "unit": "mg/kg"}
    ]}
  ]
}
